Measurements: patent publication EP0041491B1, “New para-substituted 3-phenoxy-1-alkylamino-propanol-2-s having beta receptor blocking properties” (priority 1980, dated 1981)

What was measured:
[1] = tested on: cardiac beta-adrenoceptors; assay: Experiment A: blockade of isoprenaline induced heart rate response, i.v. bolus of test compound, reserpinized anaesthetized cat; format: in vivo; settings: i.v. bolus injection during isoprenaline infusion, reserpine pretreated, pentobarbital anaesthetized, vagotomized cats
Description: (§1) A bilateral vagotomy was performed in the neck. […] The perfusion pressure (PP) was recorded.
For each dose of the test compound the peak reduction of the isoprenaline heart rate response was expressed as per cent blockade according to the formula: [formula]
(§2) Per cent blockade (for each dose) was then plotted against log dose of the test compound. The ED:50 value (i.e. the dose which produced half maximal blockade) was interpolated.

[2] = tested on: vascular beta-adrenoceptors; assay: Experiment A: blockade of isoprenaline induced vasodilatation (hind leg perfusion pressure), i.v. bolus of test compound; format: in vivo; settings: i.v. bolus injection during isoprenaline infusion, reserpine pretreated cats
Description: A bilateral vagotomy was performed in the neck. […] The perfusion pressure (PP) was recorded. […]
as §2

[3] = tested on: cardiac beta-adrenoceptors; assay: Experiment B: blockade of isoprenaline induced heart rate response, i.v. infusion of test compound; format: in vivo; settings: i.v. infusion 12 minutes per dose, isoprenaline bolus 10 minutes after start, reserpine pretreated cats
Description: as §1
(§3) An isoprenaline bolus dose which gave a heart rate response which was about 80% of the maximal response was then tested out. Usually this dose of isoprenaline was 0.4 µmol/kg.
(§4) The test compound was then infused intravenously in increasing doses. Each dose was given during 12 minutes with an interval of 18 minutes between doses.
(§5) The control dose of isoprenaline was injected 10 minutes after start of each infusion of the test compound. The dose of the test compound was increased logarithmically until total blockade of the isoprenaline responses was achieved.
(§6) The inhibitory effect of each dose of the test compound was expressed as per cent blockade according to the formula: [formula]
(§7) Per cent blockade was then plotted against log dose of the blocker and the ED:50-value was interpolated (cf. above). The ED:50 for heart rate blockade and ED:50 for blockade of the vaso- dilatation could then be compared and the selectivity for the compound estimated. Intrinsic sympa- thomimetic activity was evaluated as the maximal heart rate elevation during infusion of the test compound.

[4] = tested on: vascular beta-adrenoceptors; assay: Experiment B: blockade of isoprenaline induced vasodilatation, i.v. infusion of test compound; format: in vivo; settings: i.v. infusion 12 minutes per dose, isoprenaline bolus 10 minutes after start, reserpine pretreated cats
Description: as §1, §3, §4, §5, §6, §7

in vivo = settings: cat, iv
Description: (§8) All compounds were thereby tested in two different experimental models but with the same species, premedication and preparation. Cats (males and females weighing 2.5-3.5 kg) were pretreated with reserpine (5 mg/kg bodyweight administered intraperitoneally) about 16 hours before the experiments. The animals were pretreated with reserpine in order to eliminate the endogenous sympathetic control of heart rate and vascular smooth muscle tone. The cats were anaesthetized with pentobarbital (30 mg/kg bodyweight administered i.p.) and artificially ventilated with room air. A bilateral vagotomy was performed in the neck. Blood pressure was obtained from a cannulated carotid artery and heart rate was recorded from a cardiotachometer, triggered by the oscillations in blood pressure. The femoral artery of one hind leg was cannulated in both directions. Blood taken from the proximal part was pumped, at a constant flowrate, back into the distal part of the artery by means of a roller pump (Watson-Marlow). The perfusion pressure (PP) was recorded. Changes in PP indicated changes in the peripheral vascular resistance of the leg.
(§9) The maximal heart rate and vasodilator responses to isoprenaline were established by injecting a high i.v. bolus dose of isoprenaline (2.0 µmol/kg). An isoprenaline infusion rate was then established which gave a heart rate response (at steady state) which was about 80% of the maximal heart rate response to isoprenaline. Usually this dose of isoprenaline was 0.25 µmol/kg x min. The vasodilator response to this dose of isoprenaline was also approximately 80% of maximal. The isoprenaline dose was then infused during periods of 20 minutes with an interval of 20 minutes between the infusion periods.
(§10) The test compound was administered as an intravenous bolus injection seven minutes after start of each isoprenaline infusion. The dose of the test compound was increased until total blockade of the isoprenaline responses was achieved.
(§11) The plasma half life was estimated by the method of Levy (Nagashima, R., O'Reilly, R. A. and Levy, G., Clin. Pharmacol. Ther., 10 (1969) 22). The time from the peak inhibitory effect of each dose until 50% recovery was determined and plotted against log dose of the compound. The slope of the line obtained was calculated with linear regression. The slope equals 2.303/KE where Ke is the rate constant for elimination. The plasma half life (t 1/2) was then calculated according to the relation t 1/2 = 0.693/KE.

[5] = Experiment A: plasma half life estimated by the method of Levy from time to 50% recovery of the blockade; settings: cat, iv
Description: as §8, §9, §10, §11

| SMILES | half-life (in vivo) [min] | half-life [5] [min] | Blockade of isoprenaline induced effects Heart rate ED:50 [1] [µmol/kg] | Blockade of isoprenaline induced effects Vasodilatation ED:50 [2] [µmol/kg] | Blockade of isoprenaline induced effects Heart rate ED:50 [3] [µmol/kg/min] | Blockade of isoprenaline induced effects Vasodilatation ED:50 [4] [µmol/kg/min] |
| --- | --- | --- | --- | --- | --- | --- |
| COC(=O)CCc1ccc(OCC(O)CNC(C)C)cc1 (centres unmarked) [Ex. 1, methyl 3-[4-(2-hydroxy-3.-isopropylaminopropoxy)phenyl]propanoate] | 1 | – | 2.3 | ~32.0 | 3.6 | >25.6 |
| CCOC(=O)CCc1ccc(OCC(O)CNC(C)C)cc1 (centres unmarked) [Ex. 2, Ethyl 3-[4-(2-hydroxy-3-isopropylaminopropoxy)-phenyl]propanoate] | – | 1 | 4.7 | >51.2 | 2.1 | 12.0 |
| COCCOC(=O)CCc1ccc(OCC(O)CNC(C)C)cc1 (centres unmarked) [Ex. 3, 2-Methoxyethyl 3-[4-(2-hydroxy-3-isopropylaminopropoxy)phenyl]propanoate] | – | 1.5 | 26.0 | ~30.0 | 1.3 | >25.6 |
| COCCOC(=O)CCCc1ccc(OCC(O)CNC(C)C)cc1 (centres unmarked) [Ex. 4, 2-Methoxyethyl 4-[4-(2-hydroxy-3-isopropylaminopropoxy)phenyl]butanoate] | – | 1.7 | 3.0 | 51.8 | 1.1 | 2.3 |
| CCCOC(=O)CCc1ccc(OCC(O)CNC(C)C)cc1 (centres unmarked) [Ex. 5, Propyl 3-[4-(2-hydroxy-3-isopropylaminopropoxy)phenyl]propanoate] | – | 0.3 | ~20.0 | >51.2 | 9.0 | >25.6 |
| CC(C)NCC(O)COc1ccc(CCC(=O)OC(C)C)cc1 (centres unmarked) [Ex. 6, Isopropyl 3-[4-(2-hydroxy-3-isopropylaminopropoxy)phenyl]propanoate] | – | 3.5 | 1.7 | >12.8 | 0.9 | >6.4 |
| CCOC(=O)CCCc1ccc(OCC(O)CNC(C)C)cc1 (centres unmarked) [Ex. 7, Ethyl 4-[4-(2-hydroxy-3-isopropylaminopropoxy)phenyl]butanoate] | – | 3.3 | 1.8 | >51.0 | 1.5 | >6.4 |
| CCOC(=O)CCCc1ccc(OCC(O)CNC(C)C)c(Br)c1 (centres unmarked) [Ex. 8, Ethyl 4-[3-bromo-4-(2-hydroxy-3-isopropylaminopropoxy)phenyl]butanoate] | – | ~8 | 2.1 | >17.0 | 1.2 | >6.4 |
| COC(=O)CCc1ccc(OCC(O)CNC(C)C)c(OC)c1 (centres unmarked) [Ex. 15, methyl 3-[4-(2-hydroxy-3-isopropylaminopropoxy)-3-methoxyphenyl]propanoate] | – | 1 | 0.9 | ~20.0 | 1.9 | 18.0 |
| CCOC(=O)CCc1ccc(OCC(O)CNC(C)C)c(Br)c1 (centres unmarked) [Ex. 20, ethyl 3-[3-bromo-4-(2-hydroxy-3-isopropylaminopropoxy)phenyl]propanoate] | – | 2.2 | 0.45 | >12.8 | 1.2 | >6.4 |

More lines, main results first:

| half-life (in vivo) [min] | half-life [5] [min] | SMILES | Blockade of isoprenaline induced effects Heart rate ED:50 [1] [µmol/kg] | Blockade of isoprenaline induced effects Vasodilatation ED:50 [2] [µmol/kg] | Blockade of isoprenaline induced effects Heart rate ED:50 [3] [µmol/kg/min] | Blockade of isoprenaline induced effects Vasodilatation ED:50 [4] [µmol/kg/min] |
| --- | --- | --- | --- | --- | --- | --- |
| – | 0.9 | CCOC(=O)CCc1ccc(OCC(O)CNC(C)C)c(OC)c1 (centres unmarked) [Ex. 21, ethyl 3-[4-(2-hydroxy-3-isopropylaminopropoxy)-3-methoxyphenyl]propanoate] | 0.8 | >52 | 2.05 | >6.4 |
| – | 0.9 | CCOC(=O)CCc1ccc(OCC(O)CNC(C)C)c(OCC)c1 (centres unmarked) [Ex. 22, ethyl 3-[3-ethoxy-4-(2-hydroxy-3-isopropylaminopropoxy)phenyl]propanoate] | 2.0 | >52 | 0.6 | 0.8 |
| – | 1.8 | CCOC(=O)CCc1ccc(OCC(O)CNC(C)C)c(Cl)c1 (centres unmarked) [Ex. 23, ethyl 3-[3-chloro-4-(2-hydroxy-3-isopropylaminopropoxy)phenyl]propanoate] | 1.8 | >52 | – | – |
| – | 2.1 | COc1cc(CCC(=O)OC(C)C)ccc1OCC(O)CNC(C)C (centres unmarked) [Ex. 24, isopropyl 3-[4-(2-hydroxy-3-isopropylaminopropoxy)-3-methoxyphenyl]propanoate] | 1.2 | >12.8 | – | – |
| – | 0.9 | CCOC(=O)CCc1ccc(OCC(O)CNC(C)C)c(F)c1 (centres unmarked) [Ex. 25, ethyl 3-[3-fluoro-4-(2-hydroxy-3-isopropylaminopropoxy)phenyl]propanoate] | 0.6 | >12.8 | 2.1 | >6.4 |
